In patent EP0415567A2, “Composition and method for stabilising organic compounds” (QUADRANT BIORESOURCES LIMITED, priority 1989, dated 1991):

Experiments:
DNA ligase = assay: Storage stability of dried ATP by DNA ligase assay; format: biochemical; settings: ATP at 0.5 mM dried with ligase in trehalose buffer, no acetate as efflorescent salt; 2 weeks at 37°C
Excerpt: Using an assay for DNA ligase whioh joins DNA fragments using ATP as an energy source.

[1] = solutions of 25% wv, in six hours at 5°C; cited from earlier work

SMILES | stability of ATP in the dry state (DNA ligase) | loss of potency [1] [%]
Nc1ncnc2c1ncn2[C@@H]1O[C@H](COP(=O)(O)OP(=O)(O)OP(=O)(O)O)[C@@H](O)[C@H]1O [ATP] | completely stable | –
CC1(C)S[C@@H]2[C@H](NC(=O)[C@H](N)c3ccccc3)C(=O)N2[C@H]1C(=O)O [Ampicillin sodium] | – | 20
